Experiments:
[1] = test system: A-549 (lung carcinoma); assay: MTT cytotoxicity assay in A-549; format: cell-based; conditions: Homo sapiens, A549, 48 h incubation, mean ± SD
Protocol: (§1) The cytotoxicity was assessed in different cell lines with the endpoint MTT, using previously reported procedure. The following cells were obtained from the American Type Culture Collection: human embryonic kidney epithelial cell line (HEK 293T, ATCC HBT-22™), breast cancer cell line (MDA-MB-231, ATCC HTB-26™), osteosarcoma cell line (MG-63, ATCC CRL-1427™), gastric adenocarcinoma cell line (AGS, ATTC CRL-1739TM), prostate cancer cell line (DU-145, ATTC HTB-81™), and lung carcinoma cell line (A-549, ATCC CCL-185™). All cell lines were seeded at 2 × 10^4 cells/well with exception of A-549 cell line, which was seeded at 5 × 10^3 cells/well.

[2] = test system: human gastric adenocarcinoma (AGS) cell line; assay: MTT reduction assay, cell viability / cytotoxicity in AGS cell line; format: cell-based; conditions: for potency relative to hit 7c (times more potent / fold more active): AGS cells, ratio of IC50 values; for viability at 50 µM: Homo sapiens, AGS cell line, cell viability, MTT, 48 h incubation, mean ± SD, read-out: % CV at 50 µM
Protocol: as §1

[3] = test system: MG-63 (osteosarcoma); assay: MTT cytotoxicity assay in MG-63; format: cell-based; conditions: Homo sapiens, 48 h incubation, mean ± SD
Protocol: as §1

[4] = test system: caspase 3/7 activity in AGS cells; assay: Caspase 3/7 activity assay (Ac-DEVD-AMC fluorimetric) in AGS cells; format: cell-based, human; conditions: 48 h incubation at 12.5 µM, vs control, p < 0.05
Protocol: The activity of caspase 3/7 was determined by fluorimetric assay based on the hydrolysis of the peptide substrate acetyl-Asp-Glu-ValAsp-7-amido-4-methylcoumarin (Ac-DEVD-AMC) by caspase 3/7 using a previously reported procedure.

[5] = Buffer (PBS pH 7.4) stability; format: physicochemical; conditions: PBS pH 7.4, 24 h incubation, 37 °C
Protocol: (§2) Human plasma was obtained from healthy volunteers and provided by Instituto Português do Sangue, Lisbon, Portugal. Buffer and human plasma stabilities were determined by standard methodology. Specifically, human plasma was centrifuged (5 min, 2000× g, room temperature) and, then, diluted 50% in PBS buffer (pH 7.4). The reactions were initiated by the addition of a solution of compound 7s (4 mM in DMSO, 25 µL) to 975 µL of plasma solution, at 37 °C, obtaining a final concentration of 100 µM. Solutions were stirred at 37 °C and 100 µL aliquots were collected at different time points: 0, 30, 60, 120, and 180 min (one additional aliquot was collected at 24 h). A cold reserpine solution (internal standard, 5 µM in acetonitrile, 300 µL) was then added to quench the reactions. Following centrifugation (10 min, 10,000× g, room temperature), the clear supernatants were stored at −20 °C until further analysis by HPLC-DAD. Assays were run in duplicate and procaine was used as a positive control for plasma stability. Additional control assays were conducted using PBS (pH 7.4) instead of a plasma solution. HPLC-DAD analysis was performed as previously described.

[6] = Metabolic stability in human liver microsomes with NADPH; format: in vitro ADME
Protocol: The evaluation of the metabolic stability of compound 7s was conducted in human liver microsomes (GIBCO^TM, 20 donors) by a previously reported procedure. Specifically, for a total incubation volume of 1 mL, in 100 mM phosphate buffer at pH 7.4, 7s (10 μM), human liver microsomes (0.8 mg protein/mL), NADPH (1 mM), and NADPH regeneration system (10 µL, Vivid® Regeneration System, 100×) were used. Nevirapine was used as a positive control. Additional control incubations were performed in the absence of 7s or NADPH, and using heat-denatured (90 °C, 15 min) microsomes. The resulting mixtures were incubated at 37 °C, and all assays were run in duplicate. Aliquots (50 µL) were collected at different time points (0, 5, 10, 20, 30, 40, 50, 60, 75, 90, 120, and 180 min and 24 h) and 50 µL of cold reserpine solution (2.5 µM in acetonitrile) was then added to quench the reactions. Following centrifugation (10 min, 10,000× g, 4 °C), the supernatants were stored at −20 °C until LC-MS and LC-HRMS/MS analysis.
Samples from the metabolic stability assay were analyzed by LC-MS using the experimental conditions previously described. The in vitro depletion half-life of 7s, t1/2, was calculated using Equation (1), assuming that the compound follows a first-order kinetic trend (see Supplementary Materials Figure S2). The “slope” was determined from linear fitting of the natural logarithm of the concentration of drug remaining plotted against time. (1) t1/2=ln2/slope
The intrinsic clearance was calculated using Equation (2) (2) CLint = 0.693/ t1/2 × mL incubation/mg microsomes × 45 mg microsomes/g liver × 26 g liver/Kg b.w.

[7] = Human plasma stability; format: in vitro ADME; conditions: human plasma diluted 50% in PBS, 24 h incubation, 37 °C, 100 µM
Protocol: as §2

stability in PBS [5]	in vitro metabolic stability [6]	intrinsic hepatic clearance (CLint) ([6]; calculated from t1/2 (Equation 2))	half-life at 10 µM ([6]; pH 7.4, 10 µM, 37 °C, read-out: half-life (t1/2))	SMILES	IC50 [1]	potency relative to hit 7c (times more potent / fold more active) [2]	viability at 50 µM [2]	IC50 [3]	caspase 3/7 activity [4]	stability in human plasma [7]
				O=C1CC[C@]2(c3ccc(-c4ccc(C(F)(F)F)cc4)cc3)OC[C@@H](Cc3c[nH]c4ccccc34)N12 [Compound 7o, (3R,7aR)-3-((1H-indol-3-yl)methyl)-7a-(4’-(trifluoromethyl)-[1,1’-biphenyl]-4-yl)tetrahydropyrrolo[2,1-b]oxazol-5(6H)-one]	> 60 µM	2.3	7 ± 1%	26.8 ± 0.4 µM	significant increase	
chemical stability in PBS conditions	moderately stable	22.8 min⁻¹ mL⁻¹ kg⁻¹	45 min	O=C1CC[C@]2(c3ccc(-c4ccc(Cl)c(Cl)c4)cc3)OC[C@@H](Cc3c[nH]c4ccccc34)N12 [Compound 7s, (3R,7aR)-3-((1H-indol-3-yl)methyl)-7a-(3’,4’-dichloro-[1,1’-biphenyl]-4-yl)tetrahydropyrrolo[2,1-b]oxazol-5(6H)-one]	> 60 µM	2.3	8 ± 1%		significant increase	stability in PBS conditions and under plasmatic enzyme activity
